Literature values in US20230139888A1, “MOISTURIZING PEEL CREAM FOR ENHANCING SKIN” (L'OREAL, priority 2021, published 2023).

Conditions: acute oral toxicity, mutagenicity, skin irritation, skin sensitization, phototoxicity

CC(c1ccccc1)c1ccc(O)cc1O (stereo not shown) [Phenylethyl resorcinol]
adverse effects in basic toxicological tests: has not shown adverse effects
